{"source": "the supplement of paper PMC10307832", "assay_in_all_cases": "relative viability (nuclei count vs DMSO), 5 days (fraction); higher = more cells survive", "key": {"[1]": {"test_system": "NCI-H596", "summary_of_the_method": "(§1)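 Dosing by pin tool came one day after lung cancer cell lines were seeded in 1536-well plates, using either one drug or a fixed anchor-drug dose plus five library-drug doses (not always all listed) in √10 steps. After 5 days, nuclei were counted on 4× images. Relative viability is treated-well nuclei count divided by vehicle-well nuclei count, and values are medians of duplicate plates.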"}, "[2]": {"test_system": "BEN", "summary_of_the_method": "as §1"}, "[3]": {"test_system": "NCI-H2087", "summary_of_the_method": "as §1"}, "[4]": {"test_system": "NCI-H727", "summary_of_the_method": "as §1"}, "[5]": {"test_system": "NCI-H3122", "summary_of_the_method": "as §1"}, "[6]": {"test_system": "NCI-H23", "summary_of_the_method": "as §1"}, "[7]": {"test_system": "EMC-BAC-2", "summary_of_the_method": "as §1"}, "[8]": {"test_system": "NCI-H647", "summary_of_the_method": "as §1"}, "[9]": {"test_system": "HARA", "summary_of_the_method": "as §1"}, "[10]": {"test_system": "NCI-H838", "summary_of_the_method": "as §1"}, "[11]": {"test_system": "HCC-44", "summary_of_the_method": "as §1"}, "[12]": {"test_system": "NCI-H2126", "summary_of_the_method": "as §1"}, "[13]": {"test_system": "LCLC-103H", "summary_of_the_method": "as §1"}, "[14]": {"test_system": "NCI-H2023", "summary_of_the_method": "as §1"}, "[15]": {"test_system": "201T", "summary_of_the_method": "as §1"}, "[16]": {"test_system": "NCI-H441", "summary_of_the_method": "as §1"}, "[17]": {"test_system": "NCI-H650", "summary_of_the_method": "as §1"}, "[18]": {"test_system": "LOU-NH91", "summary_of_the_method": "as §1"}, "[19]": {"test_system": "NCI-H1395", "summary_of_the_method": "as §1"}, "[20]": {"test_system": "NCI-H2347", "summary_of_the_method": "as §1"}, "[21]": {"test_system": "NCI-H1993", "summary_of_the_method": "as §1"}}}
{"compound": "O=c1cc(N2CCOCC2)oc2c(-c3cccc4c3sc3ccccc34)cccc12", "note": "+ Cc1nc(NC(=O)N2CCC[C@H]2C(N)=O)sc1-c1ccnc(C(C)(C)C(F)(F)F)c1 [Alpelisib] (partner 2 µM)", "values": [{"measurement": "relative viability", "setting": "[1]; first compound 0.01 µM", "value": 0.469}, {"measurement": "relative viability", "setting": "[1]; first compound 0.03162 µM", "value": 0.506}, {"measurement": "relative viability", "setting": "[1]; first compound 0.1 µM", "value": 0.451}, {"measurement": "relative viability", "setting": "[1]; first compound 0.3162 µM", "value": 0.474}, {"measurement": "relative viability", "setting": "[1]; first compound 1 µM", "value": 0.522}, {"measurement": "relative viability", "setting": "[2]; first compound 0.01 µM", "value": 0.946}, {"measurement": "relative viability", "setting": "[2]; first compound 0.03162 µM", "value": 1.16}, {"measurement": "relative viability", "setting": "[2]; first compound 0.1 µM", "value": 0.951}, {"measurement": "relative viability", "setting": "[2]; first compound 0.3162 µM", "value": 0.951}, {"measurement": "relative viability", "setting": "[2]; first compound 1 µM", "value": 1.05}, {"measurement": "relative viability", "setting": "[3]; first compound 0.01 µM", "value": 1.12}, {"measurement": "relative viability", "setting": "[3]; first compound 0.03162 µM", "value": 1.02}, {"measurement": "relative viability", "setting": "[3]; first compound 0.1 µM", "value": 1.13}, {"measurement": "relative viability", "setting": "[3]; first compound 0.3162 µM", "value": 1.23}, {"measurement": "relative viability", "setting": "[3]; first compound 1 µM", "value": 1.16}, {"measurement": "relative viability", "setting": "[4]; first compound 0.01 µM", "value": 0.481}, {"measurement": "relative viability", "setting": "[4]; first compound 0.03162 µM", "value": 0.591}, {"measurement": "relative viability", "setting": "[4]; first compound 0.1 µM", "value": 0.493}, {"measurement": "relative viability", "setting": "[4]; first compound 0.3162 µM", "value": 0.538}, {"measurement": "relative viability", "setting": "[4]; first compound 1 µM", "value": 0.541}, {"measurement": "relative viability", "setting": "[5]; first compound 0.01 µM", "value": 0.868}, {"measurement": "relative viability", "setting": "[5]; first compound 0.03162 µM", "value": 0.729}, {"measurement": "relative viability", "setting": "[5]; first compound 0.1 µM", "value": 0.839}, {"measurement": "relative viability", "setting": "[5]; first compound 0.3162 µM", "value": 0.756}, {"measurement": "relative viability", "setting": "[5]; first compound 1 µM", "value": 0.713}, {"measurement": "relative viability", "setting": "[6]; first compound 0.01 µM", "value": 0.71}, {"measurement": "relative viability", "setting": "[6]; first compound 0.03162 µM", "value": 0.662}, {"measurement": "relative viability", "setting": "[6]; first compound 0.3162 µM", "value": 0.665}, {"measurement": "relative viability", "setting": "[6]; first compound 1 µM", "value": 0.745}, {"measurement": "relative viability", "setting": "[7]; first compound 0.01 µM", "value": 0.726}, {"measurement": "relative viability", "setting": "[7]; first compound 0.03162 µM", "value": 0.781}, {"measurement": "relative viability", "setting": "[7]; first compound 0.1 µM", "value": 0.813}, {"measurement": "relative viability", "setting": "[7]; first compound 0.3162 µM", "value": 0.759}, {"measurement": "relative viability", "setting": "[7]; first compound 1 µM", "value": 0.722}, {"measurement": "relative viability", "setting": "[8]; first compound 0.01 µM", "value": 1.18}, {"measurement": "relative viability", "setting": "[8]; first compound 0.03162 µM", "value": 1.2}, {"measurement": "relative viability", "setting": "[8]; first compound 0.1 µM", "value": 1.24}, {"measurement": "relative viability", "setting": "[8]; first compound 0.3162 µM", "value": 1.11}, {"measurement": "relative viability", "setting": "[8]; first compound 1 µM", "value": 0.913}, {"measurement": "relative viability", "setting": "[9]; first compound 0.01 µM", "value": 0.854}, {"measurement": "relative viability", "setting": "[9]; first compound 0.03162 µM", "value": 0.789}, {"measurement": "relative viability", "setting": "[9]; first compound 0.1 µM", "value": 0.88}, {"measurement": "relative viability", "setting": "[9]; first compound 0.3162 µM", "value": 0.809}, {"measurement": "relative viability", "setting": "[9]; first compound 1 µM", "value": 0.845}, {"measurement": "relative viability", "setting": "[10]; first compound 0.01 µM", "value": 0.961}, {"measurement": "relative viability", "setting": "[10]; first compound 0.03162 µM", "value": 0.99}, {"measurement": "relative viability", "setting": "[10]; first compound 0.1 µM", "value": 1.03}, {"measurement": "relative viability", "setting": "[10]; first compound 0.3162 µM", "value": 1.02}, {"measurement": "relative viability", "setting": "[10]; first compound 1 µM", "value": 0.975}, {"measurement": "relative viability", "setting": "[11]; first compound 0.01 µM", "value": 0.841}, {"measurement": "relative viability", "setting": "[11]; first compound 0.03162 µM", "value": 0.841}, {"measurement": "relative viability", "setting": "[11]; first compound 0.1 µM", "value": 0.826}, {"measurement": "relative viability", "setting": "[11]; first compound 0.3162 µM", "value": 0.708}, {"measurement": "relative viability", "setting": "[11]; first compound 1 µM", "value": 0.697}, {"measurement": "relative viability", "setting": "[12]; first compound 0.01 µM", "value": 0.721}, {"measurement": "relative viability", "setting": "[12]; first compound 0.03162 µM", "value": 0.736}, {"measurement": "relative viability", "setting": "[12]; first compound 0.1 µM", "value": 0.762}, {"measurement": "relative viability", "setting": "[12]; first compound 0.3162 µM", "value": 0.733}, {"measurement": "relative viability", "setting": "[12]; first compound 1 µM", "value": 0.729}, {"measurement": "relative viability", "setting": "[13]; first compound 0.01 µM", "value": 0.904}, {"measurement": "relative viability", "setting": "[13]; first compound 0.03162 µM", "value": 0.924}, {"measurement": "relative viability", "setting": "[13]; first compound 0.1 µM", "value": 1.03}, {"measurement": "relative viability", "setting": "[13]; first compound 0.3162 µM", "value": 1.03}, {"measurement": "relative viability", "setting": "[13]; first compound 1 µM", "value": 0.93}, {"measurement": "relative viability", "setting": "[14]; first compound 0.01 µM", "value": 0.653}, {"measurement": "relative viability", "setting": "[14]; first compound 0.03162 µM", "value": 0.621}, {"measurement": "relative viability", "setting": "[14]; first compound 0.1 µM", "value": 0.618}, {"measurement": "relative viability", "setting": "[14]; first compound 0.3162 µM", "value": 0.532}, {"measurement": "relative viability", "setting": "[14]; first compound 1 µM", "value": 0.487}, {"measurement": "relative viability", "setting": "[15]; first compound 0.01 µM", "value": 1}, {"measurement": "relative viability", "setting": "[15]; first compound 0.03162 µM", "value": 0.994}, {"measurement": "relative viability", "setting": "[15]; first compound 0.1 µM", "value": 1.07}, {"measurement": "relative viability", "setting": "[15]; first compound 0.3162 µM", "value": 0.979}, {"measurement": "relative viability", "setting": "[15]; first compound 1 µM", "value": 0.879}, {"measurement": "relative viability", "setting": "[16]; first compound 0.01 µM", "value": 0.832}, {"measurement": "relative viability", "setting": "[16]; first compound 0.03162 µM", "value": 0.658}, {"measurement": "relative viability", "setting": "[16]; first compound 0.1 µM", "value": 0.792}, {"measurement": "relative viability", "setting": "[16]; first compound 0.3162 µM", "value": 0.842}, {"measurement": "relative viability", "setting": "[16]; first compound 1 µM", "value": 0.7}, {"measurement": "relative viability", "setting": "[17]; first compound 0.01 µM", "value": 1.06}, {"measurement": "relative viability", "setting": "[17]; first compound 0.03162 µM", "value": 1.15}, {"measurement": "relative viability", "setting": "[17]; first compound 0.3162 µM", "value": 1.21}, {"measurement": "relative viability", "setting": "[17]; first compound 1 µM", "value": 1.09}, {"measurement": "relative viability", "setting": "[18]; first compound 0.01 µM", "value": 0.656}, {"measurement": "relative viability", "setting": "[18]; first compound 0.03162 µM", "value": 0.698}, {"measurement": "relative viability", "setting": "[18]; first compound 0.1 µM", "value": 0.726}, {"measurement": "relative viability", "setting": "[18]; first compound 0.3162 µM", "value": 0.759}, {"measurement": "relative viability", "setting": "[18]; first compound 1 µM", "value": 0.69}, {"measurement": "relative viability", "setting": "[19]; first compound 0.01 µM", "value": 1.1}, {"measurement": "relative viability", "setting": "[19]; first compound 0.03162 µM", "value": 0.976}, {"measurement": "relative viability", "setting": "[19]; first compound 0.1 µM", "value": 0.989}, {"measurement": "relative viability", "setting": "[19]; first compound 0.3162 µM", "value": 1.09}, {"measurement": "relative viability", "setting": "[19]; first compound 1 µM", "value": 0.956}, {"measurement": "relative viability", "setting": "[20]; first compound 0.01 µM", "value": 1.17}, {"measurement": "relative viability", "setting": "[20]; first compound 0.03162 µM", "value": 1.04}, {"measurement": "relative viability", "setting": "[20]; first compound 0.1 µM", "value": 1.04}, {"measurement": "relative viability", "setting": "[20]; first compound 0.3162 µM", "value": 1}, {"measurement": "relative viability", "setting": "[20]; first compound 1 µM", "value": 1.02}, {"measurement": "relative viability", "setting": "[21]; first compound 0.01 µM", "value": 0.658}, {"measurement": "relative viability", "setting": "[21]; first compound 0.03162 µM", "value": 0.741}, {"measurement": "relative viability", "setting": "[21]; first compound 0.1 µM", "value": 0.797}, {"measurement": "relative viability", "setting": "[21]; first compound 0.3162 µM", "value": 0.791}, {"measurement": "relative viability", "setting": "[21]; first compound 1 µM", "value": 0.722}]}
